Assay results published in ChEMBL document CHEMBL3217496, “Inhibitors of Stat5 protein signalling” (Medchemcomm, 2012).

Assays:
[1] = target: T1, Signal transducer and activator of transcription 5A (Homo sapiens, UniProt P42229); test: Inhibition of STAT5 (unknown origin)
T1 sequence (P42229 whole entry): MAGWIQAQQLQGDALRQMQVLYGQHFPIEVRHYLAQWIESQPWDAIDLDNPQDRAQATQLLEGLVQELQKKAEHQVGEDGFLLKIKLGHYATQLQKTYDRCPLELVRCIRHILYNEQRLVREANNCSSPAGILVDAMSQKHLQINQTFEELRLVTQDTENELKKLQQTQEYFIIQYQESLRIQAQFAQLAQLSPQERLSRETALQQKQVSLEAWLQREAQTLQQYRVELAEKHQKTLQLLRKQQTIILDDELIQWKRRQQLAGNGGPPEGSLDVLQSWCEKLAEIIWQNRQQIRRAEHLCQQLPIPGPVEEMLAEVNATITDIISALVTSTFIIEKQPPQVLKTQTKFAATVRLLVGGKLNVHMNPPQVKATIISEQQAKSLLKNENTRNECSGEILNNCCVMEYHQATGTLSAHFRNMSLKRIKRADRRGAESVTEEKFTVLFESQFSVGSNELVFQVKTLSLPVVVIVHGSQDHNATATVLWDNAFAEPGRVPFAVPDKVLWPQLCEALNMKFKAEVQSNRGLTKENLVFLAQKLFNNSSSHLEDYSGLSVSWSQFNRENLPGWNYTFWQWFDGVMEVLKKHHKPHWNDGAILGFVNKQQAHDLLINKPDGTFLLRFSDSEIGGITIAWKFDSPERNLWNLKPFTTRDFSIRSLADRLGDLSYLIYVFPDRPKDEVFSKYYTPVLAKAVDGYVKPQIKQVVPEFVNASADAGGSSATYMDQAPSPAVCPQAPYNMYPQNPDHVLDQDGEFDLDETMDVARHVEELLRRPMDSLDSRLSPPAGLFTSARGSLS

[2] = target: Signal transducer and activator of transcription 3 (Homo sapiens, UniProt P40763); test: Inhibition of STAT3 (unknown origin)
Sequence of Signal transducer and activator of transcription 3 (P40763 whole entry): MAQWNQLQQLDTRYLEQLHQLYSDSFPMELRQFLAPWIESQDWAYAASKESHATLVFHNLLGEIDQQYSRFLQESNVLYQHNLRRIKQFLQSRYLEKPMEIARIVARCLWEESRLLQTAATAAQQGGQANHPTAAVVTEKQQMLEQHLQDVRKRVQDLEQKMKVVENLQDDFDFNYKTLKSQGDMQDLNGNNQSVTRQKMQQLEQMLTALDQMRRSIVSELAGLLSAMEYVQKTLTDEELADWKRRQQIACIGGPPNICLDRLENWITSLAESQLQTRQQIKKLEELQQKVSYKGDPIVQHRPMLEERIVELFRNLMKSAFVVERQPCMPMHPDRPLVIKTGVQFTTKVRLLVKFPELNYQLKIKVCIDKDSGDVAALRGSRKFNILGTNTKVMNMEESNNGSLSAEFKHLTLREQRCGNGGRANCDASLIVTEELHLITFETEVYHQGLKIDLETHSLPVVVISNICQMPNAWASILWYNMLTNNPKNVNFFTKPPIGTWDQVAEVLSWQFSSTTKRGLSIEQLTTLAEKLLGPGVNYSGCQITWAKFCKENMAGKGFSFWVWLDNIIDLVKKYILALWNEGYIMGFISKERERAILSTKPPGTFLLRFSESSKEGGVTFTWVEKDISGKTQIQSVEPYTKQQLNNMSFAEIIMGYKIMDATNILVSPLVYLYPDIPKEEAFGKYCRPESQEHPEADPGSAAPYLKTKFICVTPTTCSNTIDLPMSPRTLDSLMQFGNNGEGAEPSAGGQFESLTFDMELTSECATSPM

[3] = target: T2, Signal transducer and activator of transcription 1-alpha/beta (Homo sapiens, UniProt P42224); test: Inhibition of STAT1 (unknown origin)
T2 sequence (P42224 whole entry): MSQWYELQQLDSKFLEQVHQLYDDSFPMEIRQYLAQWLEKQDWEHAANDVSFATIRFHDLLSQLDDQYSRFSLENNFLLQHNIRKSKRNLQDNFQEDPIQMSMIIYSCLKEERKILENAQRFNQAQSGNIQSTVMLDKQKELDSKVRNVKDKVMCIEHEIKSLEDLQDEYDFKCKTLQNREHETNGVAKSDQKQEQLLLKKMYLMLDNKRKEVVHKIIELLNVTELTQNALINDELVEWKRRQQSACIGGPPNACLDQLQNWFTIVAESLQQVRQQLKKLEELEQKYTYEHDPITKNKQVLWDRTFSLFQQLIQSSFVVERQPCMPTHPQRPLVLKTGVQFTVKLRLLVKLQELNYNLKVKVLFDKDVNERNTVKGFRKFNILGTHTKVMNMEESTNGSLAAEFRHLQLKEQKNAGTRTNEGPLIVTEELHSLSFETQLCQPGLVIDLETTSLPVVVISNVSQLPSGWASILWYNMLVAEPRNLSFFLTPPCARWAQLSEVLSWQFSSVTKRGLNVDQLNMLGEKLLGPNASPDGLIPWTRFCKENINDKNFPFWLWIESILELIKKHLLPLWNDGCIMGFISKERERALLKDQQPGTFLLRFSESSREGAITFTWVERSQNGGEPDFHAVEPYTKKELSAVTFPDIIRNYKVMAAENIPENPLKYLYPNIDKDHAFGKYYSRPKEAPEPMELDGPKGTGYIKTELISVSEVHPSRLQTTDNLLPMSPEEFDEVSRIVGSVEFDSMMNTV

[4] = target: T1, Signal transducer and activator of transcription 5A; test: Inhibition of STAT5 DNA binding activity in human K562 cells after 24 hrs by electrophoretic mobility shift assay; assay type: cell-based
[5] = target: Tyrosine-protein kinase JAK2 (Mus musculus, UniProt Q62120, V617F); test: Inhibition of JAK2 V617F mutant in mouse BAF3 cells; assay type: cell-based
Sequence of Tyrosine-protein kinase JAK2 (Q62120 as listed by the source V617F): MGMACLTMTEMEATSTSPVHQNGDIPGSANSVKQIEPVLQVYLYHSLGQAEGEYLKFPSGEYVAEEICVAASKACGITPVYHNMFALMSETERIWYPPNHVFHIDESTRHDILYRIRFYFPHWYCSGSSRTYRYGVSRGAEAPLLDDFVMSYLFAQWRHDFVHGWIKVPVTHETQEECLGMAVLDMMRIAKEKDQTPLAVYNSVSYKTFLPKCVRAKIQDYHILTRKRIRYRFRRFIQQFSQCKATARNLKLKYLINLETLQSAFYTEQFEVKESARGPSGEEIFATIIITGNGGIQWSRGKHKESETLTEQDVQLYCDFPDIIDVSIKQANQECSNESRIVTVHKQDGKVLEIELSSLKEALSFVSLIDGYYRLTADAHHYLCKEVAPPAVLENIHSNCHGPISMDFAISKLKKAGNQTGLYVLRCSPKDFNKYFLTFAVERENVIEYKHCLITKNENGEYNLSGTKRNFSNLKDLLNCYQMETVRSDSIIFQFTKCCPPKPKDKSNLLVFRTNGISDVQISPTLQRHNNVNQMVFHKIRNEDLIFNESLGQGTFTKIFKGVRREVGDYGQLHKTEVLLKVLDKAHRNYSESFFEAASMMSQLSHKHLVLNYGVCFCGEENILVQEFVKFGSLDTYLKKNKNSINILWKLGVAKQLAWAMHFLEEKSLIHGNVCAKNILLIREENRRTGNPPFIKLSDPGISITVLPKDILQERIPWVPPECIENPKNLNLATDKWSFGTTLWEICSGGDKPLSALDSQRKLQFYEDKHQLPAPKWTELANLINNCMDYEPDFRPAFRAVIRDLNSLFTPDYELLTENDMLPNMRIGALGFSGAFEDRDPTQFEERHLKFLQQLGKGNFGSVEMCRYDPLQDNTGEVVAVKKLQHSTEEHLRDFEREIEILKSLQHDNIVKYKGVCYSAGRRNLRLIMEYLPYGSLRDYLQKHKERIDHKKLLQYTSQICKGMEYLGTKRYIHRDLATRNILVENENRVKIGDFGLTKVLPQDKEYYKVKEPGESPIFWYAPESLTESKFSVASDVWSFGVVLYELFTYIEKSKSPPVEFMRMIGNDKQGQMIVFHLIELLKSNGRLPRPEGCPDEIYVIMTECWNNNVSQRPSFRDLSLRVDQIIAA

BaF3 = test: Cytotoxicity against mouse BAF3 cells expressing JAK2 V617F mutant after 48 hrs by CellTiterGlo assay; assay type: functional, cell-based; settings: BaF3, 48 h
cells = settings: Homo sapiens, EOL1
Description: Antiproliferative activity against human EOL-1 cells by CellTiterGlo assay

O=C(N/N=C/c1coc2ccccc2c1=O)c1cccnc1
IC50 [1]: 47000 nM | IC50 [2]: 180000 nM | IC50 [3]: 130000 nM

Cc1cc(Nc2ncc3cc(-c4c(Cl)cccc4Cl)c(=O)n(C)c3n2)ccc1F
IC50 [4]: 5 nM

N#CCNC(=O)c1ccc(-c2ccnc(Nc3ccc(N4CCOCC4)cc3)n2)cc1 [MOMELOTINIB]
IC50 [5]: 1500 nM

N#CC[C@H](C1CCCC1)n1cc(-c2ncnc3[nH]ccc23)cn1 [RUXOLITINIB]
IC50 (BaF3): 126 nM

CNC(=O)c1cc(Oc2ccc(NC(=O)Nc3ccc(Cl)c(C(F)(F)F)c3)cc2)ccn1 [SORAFENIB]
IC50 (cells): 2.3 nM
